Values quoted from earlier work, collected in US6756047B2, “Method and compositions for treating persistent pulmonary hypertension using aralkyl ester soft drugs” (The University of Toledo, priority 2000, dated 2004).

Key:
[1] = eye examination use
[2] = long duration of action; used clinically

half-life (duration of action) [2]	SMILES	duration [1]
–	CN1[C@@H]2CC[C@H]1C[C@@H](OC(=O)C(CO)c1ccccc1)C2 (some centres unmarked) [Atropine, atropine]	several hour
several hour	CC(C)NCC(O)COc1cccc2ccccc12 (centres unmarked) [Structure 1, propranolol]	–
